Assay results as given in PMC7822874, “Chemoprotective antimalarials identified through quantitative high-throughput screening of Plasmodium blood and liver stage parasites” (Scientific Reports, 2021).
Several values for one entry are separate records, joined by “and”; a condition that tells them apart may be missing. Equal entries are not always repeated. Where two headings read alike, the source gives them in different places.

Columns and labels:
[1] = target: Firefly luciferase (Fluc, EC 1.13.12.7) (Photinus pyralis, UniProt P08659); assay: biochemical; parameters: single determination (the paper says generally: 'qHTS assays were performed in a single replicate with a 7- to 11-point dose response format'; it is not stated for this counterscreen itself)
[2] = system: P. berghei-ANKA-GFP-LucCON liver stage parasites in HepG2-A16-CD81EGFP cells; assay: P. berghei liver stage Pb-Luc assay, Method 1 (UCSD, 1536-well); type: cell-based, Plasmodium berghei; details: Method 1; for Max Resp (signal direction of the dose response): Decrease = decreasing P. berghei viability with dose, Increase = increasing signal, Inactive = no dose response
[3] = system: luciferase-expressing P. berghei liver stage parasites in HepG2 cells; assay: Inhibition of liver-stage development assay (ILSDA), Method 2 (WRAIR, 96-well); type: cell-based, Plasmodium berghei
[4] = system: Plasmodium falciparum Dd2 asexual blood stage parasites; assay: microbe, parasite or virus in culture; parameters: species or system Plasmodium falciparum Dd2 in human erythrocytes; single determination (one 11-point concentration-response curve); details: Plasmodium falciparum, DD2, Erythrocyte, 72 h; read-out: AC50
[5] = system: T1, Plasmodium falciparum Dd2-attB (parental line), asexual blood stages; assay: microbe, parasite or virus in culture; parameters: replicate k of 3 (each line is one of three independent assays; the three lines of one compound and parasite line follow each other); details: n = 1; for Individual replicates / Log AC50 (M): 72 h; for AC50: Plasmodium falciparum, DD2, 72 h, read-out: Individual replicates / Log AC50 (converted)
T1 construct: Dd2-attB, the isogenic parental line
In short: (§1)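 Only some compounds were profiled here. Each was assayed three independent times against the Dd2-attB parent and its yeast-DHODH-overexpressing derivative.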

[6] = system: T2, Plasmodium falciparum Dd2-attB-ScDHODH (transgenic line expressing yeast DHODH), asexual blood stages; assay: organism not typed; parameters: replicate k of 3 (each line is one of three independent assays; the three lines of one compound and parasite line follow each other); details: 72 h, n = 1; for AC50: read-out: Individual replicates / Log AC50 (converted)
T2 construct: Dd2-attB-ScDHODH, the transgenic line that expresses yeast DHODH
In short: as §1

[7] = system: T1, Plasmodium falciparum Dd2-attB (parental line), asexual blood stages; assay: microbe, parasite or virus in culture; parameters: species or system P. falciparum Dd2-attB in human erythrocytes; SYBR Green-I proliferation assay, Dd2-attB parental line, asexual blood stages; details: Plasmodium falciparum, DD2, Erythrocyte, 72 h, read-out: Calculated / Average Log AC50 (M), mean of replicates, 72 h (converted)
[8] = Hill fit, 50% of maximum activity response, read-out: AC50
[9] = log10 of molar AC50 from Hill fit
[10] = Plasmodium berghei, Hill fit, 50% of maximum activity response, read-out: AC50
[11] = Plasmodium berghei, log10 of molar AC50 from Hill fit, read-out: Log AC50 (converted)

Firefly luciferase (Fluc, EC 1.13.12.7), sequence (P08659 whole entry): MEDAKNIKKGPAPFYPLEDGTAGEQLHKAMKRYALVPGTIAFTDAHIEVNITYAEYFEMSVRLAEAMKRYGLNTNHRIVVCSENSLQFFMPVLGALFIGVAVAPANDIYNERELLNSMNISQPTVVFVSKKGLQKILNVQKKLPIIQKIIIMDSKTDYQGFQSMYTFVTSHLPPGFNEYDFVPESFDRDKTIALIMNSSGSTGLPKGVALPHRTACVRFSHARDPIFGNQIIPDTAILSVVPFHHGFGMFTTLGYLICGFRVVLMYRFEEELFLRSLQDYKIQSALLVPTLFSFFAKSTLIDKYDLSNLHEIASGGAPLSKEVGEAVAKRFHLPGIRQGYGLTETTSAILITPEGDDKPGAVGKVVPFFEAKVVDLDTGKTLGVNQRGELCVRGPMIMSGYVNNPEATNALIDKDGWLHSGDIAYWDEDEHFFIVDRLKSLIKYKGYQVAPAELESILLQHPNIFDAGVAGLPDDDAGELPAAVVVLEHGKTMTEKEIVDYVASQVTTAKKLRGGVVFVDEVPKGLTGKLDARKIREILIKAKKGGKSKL

Compound | Individual replicates / Log AC50 (M) [5] | AC50 [5] | Individual replicates / Log AC50 (M) [6] | AC50 [7] | AC50 [6] | other results
Nc1nc(Nc2ccccc2)nc2ccccc12 [MLS000026767-01] | – | – | – | – | – | AC50 [1]: 13.6 µM
Cc1ccc(C(=O)Nc2sc3c(c2C(=O)O)CCCCC3)o1 [MLS000060651-01] | – | – | – | – | – | AC50 [1]: 10.8 µM
Cc1ccoc1C(=O)Nc1ccc(CC(=O)O)cc1 [MLS000122814-01] | – | – | – | – | – | AC50 [1]: 12.1 µM
O=C1C(c2ccc(C(F)(F)F)cc2)=C(Nc2ccc(Cl)cc2)c2ccccc21 [NCGC00107304-01] | -6.0986 Log AC50 (M) | 0.564 µM | -5.0986 Log AC50 (M) and -5.1486 Log AC50 (M) and -5.3986 Log AC50 (M) | 7.1e-07 M | – | Max Resp (signal direction of the dose response) [2]: Decrease; AC50 [2, 8]: 0.282 µM; Log AC50 (M) [2, 9]: -6.550 M; AC50 [2, 10]: 0.158 µM; AC50 [2, 11]: 0.158 µM; Max Resp (signal direction of the dose response) ([3]; Method 2, Decrease = decreasing P. berghei viability with dose, Increase = increasing signal, Inactive = no dose response): Inactive; AC50 [4]: 1.5 µM
COC(=O)c1ccnc2cc(C(OCCN3CCC(F)(F)CC3)c3ccccc3Cl)[nH]c12 (centres unmarked) [NCGC00408945-01] | – | 10 µM | – | 1.42e-05 M | 15.9 µM | –
CCOC(=O)c1ccnc(-c2ncn(C)c2-c2ccc(OC)cc2)c1 [NCGC00409816-01] | -5.1986 Log AC50 (M) and -4.8486 Log AC50 (M) and -5.0986 Log AC50 (M) | – | -4.9486 Log AC50 (M) and -4.7986 Log AC50 (M) | 8.94e-06 M | 7.97 µM | –
COc1ccc(-c2c(-c3cc([N+](=O)[O-])ccn3)ncn2C)cc1 [NCGC00414991-01] | – | 14.2 µM | -4.7986 Log AC50 (M) | 1.22e-05 M | 8.94 µM | –
O=C(Cc1ccc(O)cc1)N1CC(CNc2ccccc2)C2(C1)CN(c1ccccc1)C2 (centres unmarked) [NCGC00415859-01] | -6.8373 Log AC50 (M) and -6.9373 Log AC50 (M) and -6.5873 Log AC50 (M) | – | -6.4873 Log AC50 (M) and -6.7373 Log AC50 (M) and -6.8873 Log AC50 (M) | 1.63e-07 M | – | Max Resp (signal direction of the dose response) [2]: Decrease; AC50 [2, 8]: 0.631 µM; Log AC50 (M) [2, 9]: -6.200 M; AC50 [2, 10]: 0.447 µM; AC50 [2, 11]: 0.447 µM; Activity direction (Decrease / Inactive) ([3]; P. berghei liver stage, Method 2, dose response): Inactive; AC50 [4]: 0.243 µM
C=C[S+](=O)([O-])N1CCCN(c2cc(N(CCC(=O)O)[S+](=O)([O-])C=C)nc(-c3ccccn3)n2)CC1 [NCGC00420875-01] | – | 11.3 µM | – | 1.53e-05 M | 15.9 µM | –
CCC(C)C1=N[S+](=O)([O-])c2cc(NC(=O)C3CC3)ccc2N1c1ccccc1 (centres unmarked) [NCGC00474156-01] | -5.9486 Log AC50 (M) and -5.5986 Log AC50 (M) (2×) | – | -5.1986 Log AC50 (M) and -5.1486 Log AC50 (M) | 1.93e-06 M | 8.94 µM | –
CC(NCCN1CCCCC1)c1cnn(-c2cc(CO)ccn2)c1-c1cccc(-c2ccccc2)c1 (centres unmarked) [NCGC00479100-01] | – | 8.94 µM | – | 3.99e-06 M | 8.94 µM | –
Oc1ncnc2sc(C(OCCN3CCCCC3)c3ccccc3Cl)cc12 (centres unmarked) [NCGC00481361-01] | -5.0986 Log AC50 (M) | 8.94 µM | -5.0486 Log AC50 (M) | 1e-05 M | 15.9 µM | –
